According to patent publication US20120022143A1, “RNA Interference Mediated Inhibition of the Thymic Stromal Lymphopoietin (TSLP) Gene Expression Using Short Interfering Nucliec Acid (siNA)” (Merck Sharp & Dohme Corp, priority 2009, published 2012):
[invAb] = inverted abasic unit; d = 2'-deoxy (DNA); m = 2'-O-methyl; r = 2'-OH (RNA); f = 2'-fluoro

Tests used:
[1] = system: TSLP mRNA; assay: Initial screening: TSLP mRNA knock-down by RT-PCR (Taqman) after RNAiMax transfection of NHLF cells; assay type: cell-based; conditions: 10 nM siNA, human NHLF cells, 24 hrs post-transfection, relative to non-targeting control, normalized to GAPDH; mean ± s.d. from 2 experiments
Experimental: (§1) All cells were obtained from ATCC (Manassas, Va.) unless otherwise indicated. Cells were grown and transfected under standard conditions, which are detailed below for each cell line.
NHLF (human; Lonza cat# CC-2512): Cells were cultured at 37° C. in the presence of 5% CO2 and grown Fibroblast Basal Medium (Lonza cat# CC-3β2) supplemented growth factors (provided with the kit) and 100 μg/mL of streptomycin and 100 U/mL penicillin.
(§2) All transfections were performed using RNAiMax (Invitrogen Cat# 13778-150) as per the manufacturer's instructions.
(§3) Both human and murine cell lines were transfected in the similar fashion. Cells were plated in all wells of a tissue-culture treated, 96-well plate at a final count of 5,000 cells/well in […], of appropriate culture media. Cells were cultured for 24 hours after plating at 37° C. in the presence of 5% CO2.
(§4) After 24 hours, complexes containing siNA and RNAiMax were created as follows: A solution of RNAiMax diluted 33-fold in OPTI-MEM was prepared. In parallel, solutions of the siNAs for testing were prepared to a final concentration of 120 nM in OPTI-MEM. After incubation of RNAiMax/OPTI-MEM solution at room temperature for 5 min, an equal volume of the siNA solution and the RNAiMax solution were added together for each of the siNAs.
(§5) This solution was incubated at room temperature for 20 minutes. After incubation, 20 uL of the solution was added to each of the relevant wells.
(§6) The final concentration of siNA in each well was 10 nM and the final volume of RNAiMax in each well was 0.3 ul.
(§7) The time of incubation with the RNAiMax-siNA complexes was 24 hours, unless otherwise indicated. There was no change in media between the transfection and harvesting of the cells unless otherwise indicated.
(§8) RNA was extracted from a 96-well plate using the TaqMan® Gene Expression Cells-to-CT™ Kit (Cat# 4399002) with a modified protocol. Briefly, a 60 uL (1 plate) or 110 uL (2 plates) of the Lysis Solution with DNase I was dispensed into each well of the Lysis Buffer Plate (twin.tec full skirt plate). The lysis buffer and stop plates were stored at 4° C. until the cells were washed.
(§9) The plate was spun at 1100 rpm for 5 minutes. The culture medium was aspirated and discarded from the wells of the culture plate. The lysis was performed automatically using a BioMek FX instrument and method. After the Biomek method was completed, the lysis plate was incubated for 2 min. at room temperature. The lysis plate can be stored for 2 hours at 4° C., or at −20° C. or −80° C. for two months.
(§10) Each well of the reverse transcription plate required 10 uL of 2× reverse transcriptase Buffer, luL of 20× reverse transcription enzyme and 2 uL of nuclease-free water. The reverse transcription master mix was prepared by mixing 2× reverse transcription buffer, 20× reverse transcription enzyme mix, and nuclease-free water. 13 uL of the reverse transcription master mix was dispensed into each well of the reverse transcription plate (semi-skirted). A separate reverse transcription plate was prepared for each cell plate. The plate was loaded onto a Biomek NX or Biomek FX Dual-96 and the Biomek method was run. The program is programmed to automatically added 7 uL of lysate from the cell lysis procedure described above into each well of the reverse transcription plate. The plate is sealed and spun on a centrifuge (1000 rpm for 30 seconds) to settle the contents to the bottom of the reverse transcription plate. The plate is placed in a thermocycler at 37° C. for 60 min, 95° C. for 5 min, and 4° C. until the plate is removed from the thermocycler. Upon removal, if not used immediately, the plate was frozen at −20° C.
A series of probes and primers were used to detect the various mRNA transcripts of the genes of TSLP, IL-8 and GAPDH in human cell lines. All the Taqman probes and primers for the experiments here-in described were supplied as pre-validated sets by Applied Biosystems, Inc. (see Table 2). […]

[2] = system: mTSLP mRNA; assay: Initial screening: mouse TSLP mRNA knock-down by RT-PCR (Taqman) after RNAiMax transfection of NIH 3T3 cells; assay type: cell-based; conditions: 10 nM siNA, 24 hrs post-transfection, mean ± s.d., summary from 2 screens
Experimental: as §1
NIH 3T3 (murine; ATCC cat#CRL-1658): Cells were cultured at 37° C. in the presence of 5% CO2 and grown in Dulbecco's modified Eagle's medium (DMEM) with 4 mM L-glutamine adjusted to contain 1.5 g/L sodium bicarbonate and 4.5 g/L glucose and supplemented with fetal bovine serum at a final concentration of 10% and 100 μg/mL of streptomycin and 100 U/mL penicillin.
as §2, §3, §4, §5, §6, §7, §8, §9, §10
A series of probes and primers were used to detect the various mRNA transcripts of the genes of TSLP, IL-8 and GAPDH in human cell lines. […]

In the case of “25452-DC: siNA duplex: sense B uuGuGAAcAcuuuuGAAAA TTB (SEQ ID NO: 87), antisense UUUucAAAAGuGuucAcAAUU (SEQ ID NO: 88) (sense UUGUGAACACUUUUGAAAATT; antisense UUUUCAAAAGUGUUCACAAUU; sense: DNA at AGT, 2'-fluoro at CU, [invAb] at 5' end, 3' end, backbone not given here; antisense: sugars from the 5' end rrrffmmmmmfmfffmfmmmm, backbone not given here)”, the “% KD TSLP” value [1] is reported as 86 ± 3% and the “% KD mTSLP NIH3T3” value [2] is reported as 36.4 ± 7.9%.
In the case of “25439-DC: siNA duplex: sense B cAcGuGGGAAuGcAcuGAu TTB (SEQ ID NO: 61), antisense AUCAGuGcAuucccAcGuGUU (SEQ ID NO: 62) (sense CACGUGGGAAUGCACUGAUTT; antisense AUCAGUGCAUUCCCACGUGUU; sense: DNA at AGT, 2'-fluoro at CU, [invAb] at 5' end, 3' end, backbone not given here; antisense: sugars from the 5' end rrrmmfrfmfffffmfmfrmm, backbone not given here)”, the “% KD TSLP” value [1] is reported as 12 ± 36.7% and the “% KD mTSLP NIH3T3” value [2] is reported as 16.8 ± 14.7%.
“25451-DC: siNA duplex: sense B uAAuuAcAGAAGAGuuucu TTB (SEQ ID NO: 85), antisense AGAAAcucuucuGuAAuuAUU (SEQ ID NO: 86) (sense UAAUUACAGAAGAGUUUCUTT; antisense AGAAACUCUUCUGUAAUUAUU; sense: DNA at AGT, 2'-fluoro at CU, [invAb] at 5' end, 3' end, backbone not given here; antisense: sugars from the 5' end rrrmmfffffffmfmmffmmm, backbone not given here)” was tested, and the “% KD TSLP” value [1] was 76 ± 16.4% and the “% KD mTSLP NIH3T3” value [2] was −37.4 ± 15.7%.
For “25458-DC: siNA duplex: sense B GuAGAAAAAAAAAuuAAAA TTB (SEQ ID NO: 99), antisense UUUuAAuuuuuuuuucuAcUU (SEQ ID NO: 100) (sense GUAGAAAAAAAAAUUAAAATT; antisense UUUUAAUUUUUUUUUCUACUU; sense: sugars from the 5' end d1 f1 d11 f2 d6, [invAb] at 5' end, 3' end, backbone not given here; antisense: sugars from the 5' end rrrfmmfffffffffffmfmm, backbone not given here)”, the “% KD TSLP” value [1] was 45 ± 9.9% and the “% KD mTSLP NIH3T3” value [2] was 21.6 ± 0.5%.
In the case of “25471-DC: siNA duplex: sense B AGuAGAAAAAAAAAuuAAA TTB (SEQ ID NO: 125), antisense UUUAAuuuuuuuuucuAcuUU (SEQ ID NO: 126) (sense AGUAGAAAAAAAAAUUAAATT; antisense UUUAAUUUUUUUUUCUACUUU; sense: sugars from the 5' end d2 f1 d11 f2 d5, [invAb] at 5' end, 3' end, backbone not given here; antisense: sugars from the 5' end rrrmmfffffffffffmffmm, backbone not given here)”, the “% KD TSLP” value [1] is reported as 22 ± 17.1% and the “% KD mTSLP NIH3T3” value [2] is reported as 6.1 ± 9.6%.
For “25460-DC: siNA duplex: sense B GucuGAAucAAAccucACA TTB (SEQ ID NO: 103), antisense UGUGAGGuuuGAuucAGAcUU (SEQ ID NO: 104) (sense GUCUGAAUCAAACCUCACATT; antisense UGUGAGGUUUGAUUCAGACUU; sense: sugars from the 5' end dfffdddffdddffffddddd, [invAb] at 5' end, 3' end, backbone not given here; antisense: sugars from the 5' end rrrmmmmfffmmfffmmmfmm, backbone not given here)”, the “% KD TSLP” value [1] was −7 ± 10.7% and the “% KD mTSLP NIH3T3” value [2] was 40.8 ± 1.4%.
With “25430-DC: siNA duplex: sense B cccuGAAAAAGGAAAAAuA TTB (SEQ ID NO: 43), antisense UAUuuuuccuuuuucAGGGUU (SEQ ID NO: 44) (sense CCCUGAAAAAGGAAAAAUATT; antisense UAUUUUUCCUUUUUCAGGGUU; inverted abasic caps, TT overhang, chemistry not fully specified)” the “% KD TSLP” value [1] was 89 ± 4.5% and the “% KD mTSLP NIH3T3” value [2] was 30.4 ± 9.9%.
In the case of “25448-DC: siNA duplex: sense B uGuGAAcAcuuuuGAAAAu TTB (SEQ ID NO: 79), antisense AUUuucAAAAGuGuucAcAUU (SEQ ID NO: 80) (sense UGUGAACACUUUUGAAAAUTT; antisense AUUUUCAAAAGUGUUCACAUU; sense: DNA at AGT, 2'-fluoro at CU, [invAb] at 5' end, 3' end, backbone not given here; antisense: sugars from the 5' end rrrfffmmmmmfmfffmfmmm, backbone not given here)”, the “% KD TSLP” value [1] is reported as 80 ± 7% and the “% KD mTSLP NIH3T3” value [2] is reported as 45.1 ± 6.3%.
“25453-DC: siNA duplex: sense B AuuAcAGAAGAGuuucuuA TTB (SEQ ID NO: 89), antisense UAAGAAAcucuucuGuAAuUU (SEQ ID NO: 90) (sense AUUACAGAAGAGUUUCUUATT; antisense UAAGAAACUCUUCUGUAAUUU; sense: DNA at AGT, 2'-fluoro at CU, [invAb] at 5' end, 3' end, backbone not given here; antisense: sugars from the 5' end rrrmmmmfffffffmfmmfmm, backbone not given here)” was tested, and the “% KD TSLP” value [1] was 81 ± 10.5% and the “% KD mTSLP NIH3T3” value [2] was −8.6 ± 12.2%.
With “25441-DC: siNA duplex: sense B GGucAGuuAuGucAAuGuu TTB (SEQ ID NO: 65), antisense AACAuuGAcAuAAcuGAccUU (SEQ ID NO: 66) (sense GGUCAGUUAUGUCAAUGUUTT; antisense AACAUUGACAUAACUGACCUU; sense: DNA at AGT, 2'-fluoro at CU, [invAb] at 5' end, 3' end, backbone not given here; antisense: sugars from the 5' end rrrmffmmfmfmmffmmffmm, backbone not given here)” the “% KD TSLP” value [1] was 40 ± 16.2% and the “% KD mTSLP NIH3T3” value [2] was −13.4 ± 10^ %.
In the case of “25431-DC: siNA duplex: sense B GcuucAGGAuGcAuuGcAA TTB (SEQ ID NO: 45), antisense UUGcAAuGcAuccuGAAGcUU (SEQ ID NO: 46) (sense GCUUCAGGAUGCAUUGCAATT; antisense UUGCAAUGCAUCCUGAAGCUU; sense: DNA at AGT, 2'-fluoro at CU, [invAb] at 5' end, 3' end, backbone not given here; antisense: sugars from the 5' end rrrfmmfmfmffffmmmmfmm, backbone not given here)”, the “% KD TSLP” value [1] is reported as −11 ± 39.5% and the “% KD mTSLP NIH3T3” value [2] is reported as −10.8 ± 14.2%.
“25467-DC: siNA duplex: sense B cAAGAGccuuGcAcAucuA TTB (SEQ ID NO: 117), antisense UAGAuGuGcAAGGcucuuGUU (SEQ ID NO: 118) (sense CAAGAGCCUUGCACAUCUATT; antisense UAGAUGUGCAAGGCUCUUGUU; sense: DNA at AGT, 2'-fluoro at CU, [invAb] at 5' end, 3' end, backbone not given here; antisense: sugars from the 5' end rrrmfmfmfmmmmfffffmmm, backbone not given here)” was tested, and the “% KD TSLP” value [1] was −13 ± 31.7% and the “% KD mTSLP NIH3T3” value [2] was −31 ± 7.4%.
